Results: patent publication US10131652B2, “Pyrimidinyloxy benzene derivatives as herbicides” (E. I. DU PONT DE NEMOURS AND COMPANY, priority 2014, dated 2018)

Assays:
Type in all cases: in vivo
[1] = test system: barnyardgrass (Echinochloa crus-galli); assay: Test C flooded paddy test plant response; details: Flood, 250 g ai/ha; scale of 0 to 100 where 0 is no effect and 100 is complete control; 13 to 15 days
Procedure, shortened: (§1)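 2-leaf plants; flood 3 cm, cpd into paddy water; greenhouse 13–15 d; visual score vs untreated, 0 = no effect, 100 = complete control; dash = no result.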

rice (Oryza sativa) = assay: Test C flooded paddy test plant response; details: Flood, 250 g ai/ha; scale of 0 to 100 where 0 is no effect and 100 is complete control; 13 to 15 days
Procedure, shortened: as §1

[2] = test system: small-flower umbrella sedge (Cyperus difformis); assay: Test C flooded paddy test plant response; details: Flood, 250 g ai/ha; scale of 0 to 100 where 0 is no effect and 100 is complete control; 13 to 15 days
Procedure, shortened: as §1

[3] = test system: ducksalad (Heteranthera limosa); assay: Test C flooded paddy test plant response; details: Flood, 250 g ai/ha; scale of 0 to 100 where 0 is no effect and 100 is complete control; 13 to 15 days
Procedure, shortened: as §1

[4] = test system: chickweed (common chickweed, Stellaria media); assay: Test D postemergence plant response; details: for Chickweed plant response rating: scale 0 to 100 (0 no effect, 100 complete control); for Plant response rating, Chickweed: scale 0 to 100, 0 no effect, 100 complete control
Procedure, shortened: (§2)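 The formulated test chemicals were applied over the foliage of young potted plants (2 to 18 cm tall), which were then held under greenhouse conditions. Between days 13 and 15 each species was rated by eye versus controls, from 0 for no effect up to 100 for complete control.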

kochia (Kochia scoparia) = assay: Test D postemergence plant response; details: for Kochia plant response rating: 31 g ai/ha, scale 0 to 100 (0 no effect, 100 complete control); for Plant response rating, Kochia: scale 0 to 100, 0 no effect, 100 complete control
Procedure, shortened: as §2

wild oat (Avena fatua) = assay: Test D postemergence plant response
Procedure, shortened: as §2

[5] = test system: large (Lg) crabgrass (Digitaria sanguinalis); assay: Test D pre-/postemergence plant response
Procedure, shortened: (§3)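 Test chemicals were formulated in a non-phytotoxic solvent mixture containing surfactant and applied either preemergence to seeds in loam–sand soil or postemergence to plants 2 to 18 cm tall (1- to 4-leaf stage). Response was rated visually against controls after 13 to 15 days, from 0 (none) to 100 (complete control).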

[6] = test system: velvetleaf (Abutilon theophrasti); assay: Test D pre-/postemergence plant response
Procedure, shortened: as §3

[7] = test system: winter wheat (Triticum aestivum); assay: Test D pre-/postemergence plant response
Procedure, shortened: as §3

[8] = test system: johnsongrass (Sorghum halepense); assay: Test D pre-/postemergence plant response
Procedure, shortened: as §3

[9] = test system: oilseed rape (Brassica napus); assay: Test D pre-/postemergence plant response
Procedure, shortened: as §3

[10] = test system: yellow nutsedge (Cyperus esculentus); assay: Test D pre-/postemergence plant response
Procedure, shortened: as §3

soybean (Glycine max) = assay: Test D pre-/postemergence plant response
Procedure, shortened: as §3

[11] = 31 g ai/ha, scale 0 to 100 (0 no effect, 100 complete control)
[12] = 62 g ai/ha, scale 0 to 100, 0 no effect, 100 complete control
[13] = 125 g ai/ha, scale 0 to 100, 0 no effect, 100 complete control
[14] = Postemergence, 31 g ai/ha, scale 0 to 100 (0 no effect, 100 complete control)
[15] = Postemergence, 62 g ai/ha, scale 0 to 100, 0 no effect, 100 complete control
[16] = Postemergence, 125 g ai/ha, scale 0 to 100, 0 no effect, 100 complete control
[17] = Preemergence, 16 g ai/ha, scale 0 to 100 (0 no effect, 100 complete control)
[18] = Preemergence, 31 g ai/ha, scale 0 to 100 (0 no effect, 100 complete control)
[19] = Preemergence, 62 g ai/ha, scale 0 to 100 (0 no effect, 100 complete control)

## FC(F)Oc1cccc(Oc2ncc(Cl)cn2)c1-c1cc(C(F)F)on1 [Compound 131]
[1]
  Barnyardgrass plant response rating: 75
Rice (Oryza sativa)
  Rice plant response rating: 60
[2]
  Sedge, Umbrella plant response rating: 95
[3]
  Ducksalad plant response rating: 95
[4]; 16 g ai/ha
  Chickweed plant response rating: 65
[4]; 31 g ai/ha
  Chickweed plant response rating: 80
[4]; 62 g ai/ha
  Plant response rating, Chickweed: 98
[4]; 125 g ai/ha
  Plant response rating, Chickweed: 100
Kochia (Kochia scoparia)
  Kochia plant response rating: 90
Kochia (Kochia scoparia); 62 g ai/ha
  Plant response rating, Kochia: 95
Kochia (Kochia scoparia); 125 g ai/ha
  Plant response rating, Kochia: 100
Wild oat (Avena fatua); [11]
  Oat, Wild plant response rating: 15
Wild oat (Avena fatua); [12]
  Plant response rating, Oat, Wild: 20
Wild oat (Avena fatua); [13]
  Plant response rating, Oat, Wild: 35
[5]; Postemergence, 16 g ai/ha, scale 0 to 100 (0 no effect, 100 complete control)
  Crabgrass, Large plant response rating: 5
[5]; [14]
  Crabgrass, Large plant response rating: 5
[5]; [15]
  Plant response rating, Crabgrass, Large: 10
[5]; [16]
  Plant response rating, Crabgrass, Large: 20
[5]; Preemergence, 125 g ai/ha
  Plant response rating (scale 0 to 100), Crabgrass, Large: 100
[5]; [17]
  Plant response rating, Crabgrass, Large: 98
[5]; [18]
  Plant response rating, Crabgrass, Large: 100
[5]; [19]
  Plant response rating, Crabgrass, Large: 100
[6]; [14]
  Velvetleaf plant response rating: 65
[6]; [15]
  Plant response rating, Velvetleaf: 80
[6]; [16]
  Plant response rating, Velvetleaf: 85
[6]; Preemergence, 125 g ai/ha
  Plant response rating (scale 0 to 100), Velvetleaf: 98
[6]; [17]
  Plant response rating, Velvetleaf: 20
[6]; [18]
  Plant response rating, Velvetleaf: 65
[6]; [19]
  Plant response rating, Velvetleaf: 80
[7]; [14]
  Wheat plant response rating: 0
[7]; [15]
  Plant response rating, Wheat: 0
[7]; [16]
  Plant response rating, Wheat: 0
[7]; Preemergence, 125 g ai/ha
  Plant response rating (scale 0 to 100), Wheat: 5
[7]; [17]
  Plant response rating, Wheat: 0
[7]; [18]
  Plant response rating, Wheat: 0
[7]; [19]
  Plant response rating, Wheat: 0
[8]; [14]
  Johnsongrass plant response rating: 5
[8]; [15]
  Plant response rating, Johnsongrass: 25
[8]; [16]
  Plant response rating, Johnsongrass: 45
[8]; Preemergence, 125 g ai/ha
  Plant response rating (scale 0 to 100), Johnsongrass: 85
[8]; [17]
  Plant response rating, Johnsongrass: 0
[8]; [18]
  Plant response rating, Johnsongrass: 30
[8]; [19]
  Plant response rating, Johnsongrass: 80
[9]; [14]
  Oilseed Rape plant response rating: 45
[9]; [15]
  Plant response rating, Oilseed Rape: 80
[9]; [16]
  Plant response rating, Oilseed Rape: 85
[9]; Preemergence, 125 g ai/ha
  Plant response rating (scale 0 to 100), Oilseed Rape: 95
[9]; [17]
  Plant response rating, Oilseed Rape: 10
[9]; [18]
  Plant response rating, Oilseed Rape: 50
[9]; [19]
  Plant response rating, Oilseed Rape: 85
[10]; [14]
  Nutsedge, Yellow plant response rating: 0
[10]; [15]
  Plant response rating, Nutsedge, Yellow: 5
[10]; [16]
  Plant response rating, Nutsedge, Yellow: 10
[10]; Preemergence, 125 g ai/ha
  Plant response rating (scale 0 to 100), Nutsedge, Yellow: 70
[10]; [17]
  Plant response rating, Nutsedge, Yellow: 0
[10]; [18]
  Plant response rating, Nutsedge, Yellow: 5
[10]; [19]
  Plant response rating, Nutsedge, Yellow: 5
Soybean (Glycine max); [14]
  Soybean plant response rating: 15
Soybean (Glycine max); [15]
  Plant response rating, Soybean: 75
Soybean (Glycine max); [16]
  Plant response rating, Soybean: 65
Soybean (Glycine max); Preemergence, 125 g ai/ha
  Plant response rating (scale 0 to 100), Soybean: 85
Soybean (Glycine max); [17]
  Plant response rating, Soybean: 5
Soybean (Glycine max); [18]
  Plant response rating, Soybean: 10
Soybean (Glycine max); [19]
  Plant response rating, Soybean: 50

## FCc1cc(-c2c(Br)cccc2Oc2ncc(Cl)cn2)no1 [Compound 191]
[1]
  Barnyardgrass plant response rating: 20
Rice (Oryza sativa)
  Rice plant response rating: 0
[2]
  Sedge, Umbrella plant response rating: 85
[3]
  Ducksalad plant response rating: 80
[4]; 16 g ai/ha
  Plant response rating (scale 0 to 100), Chickweed: 50
[4]; 31 g ai/ha
  Chickweed plant response rating: 55
[4]; 62 g ai/ha
  Plant response rating, Chickweed: 70
[4]; 125 g ai/ha
  Plant response rating, Chickweed: 90
Kochia (Kochia scoparia); 16 g ai/ha
  Plant response rating (scale 0 to 100), Kochia: 50
Kochia (Kochia scoparia)
  Kochia plant response rating: 80
Kochia (Kochia scoparia); 62 g ai/ha
  Plant response rating, Kochia: 85
Kochia (Kochia scoparia); 125 g ai/ha
  Plant response rating, Kochia: 90
Wild oat (Avena fatua); 16 g ai/ha
  Plant response rating (scale 0 to 100), Oat, Wild: 0
Wild oat (Avena fatua); [11]
  Oat, Wild plant response rating: 0
Wild oat (Avena fatua); [12]
  Oat, Wild plant response rating: 5
Wild oat (Avena fatua); [13]
  Plant response rating, Oat, Wild: 5
[5]; Postemergence, 16 g ai/ha
  Plant response rating (scale 0 to 100), Crabgrass, Large: 5
[5]; [14]
  Crabgrass, Large plant response rating: 10
[5]; [15]
  Plant response rating, Crabgrass, Large: 10
[5]; [16]
  Plant response rating, Crabgrass, Large: 20
[6]; Postemergence, 16 g ai/ha
  Plant response rating (scale 0 to 100), Velvetleaf: 15
[6]; [14]
  Velvetleaf plant response rating: 30
[6]; [15]
  Velvetleaf plant response rating: 30
[6]; [16]
  Plant response rating, Velvetleaf: 50
[7]; Postemergence, 16 g ai/ha
  Plant response rating (scale 0 to 100), Wheat: 0
[7]; [14]
  Wheat plant response rating: 0
[7]; [15]
  Wheat plant response rating: 0
[7]; [16]
  Plant response rating, Wheat: 0
[8]; Postemergence, 16 g ai/ha
  Plant response rating (scale 0 to 100), Johnsongrass: 5
[8]; [14]
  Johnsongrass plant response rating: 5
[8]; [15]
  Plant response rating, Johnsongrass: 5
[8]; [16]
  Plant response rating, Johnsongrass: 5
[9]; Postemergence, 16 g ai/ha
  Plant response rating (scale 0 to 100), Oilseed Rape: 0
[9]; [14]
  Oilseed Rape plant response rating: 40
[9]; [15]
  Oilseed Rape plant response rating: 60
[9]; [16]
  Plant response rating, Oilseed Rape: 90
[10]; Postemergence, 16 g ai/ha
  Plant response rating (scale 0 to 100), Nutsedge, Yellow: 0
[10]; [14]
  Nutsedge, Yellow plant response rating: 5
[10]; [15]
  Nutsedge, Yellow plant response rating: 5
[10]; [16]
  Plant response rating, Nutsedge, Yellow: 10
Soybean (Glycine max); Postemergence, 16 g ai/ha
  Plant response rating (scale 0 to 100), Soybean: 45
Soybean (Glycine max); [14]
  Soybean plant response rating: 65
Soybean (Glycine max); [15]
  Soybean plant response rating: 75
Soybean (Glycine max); [16]
  Plant response rating, Soybean: 95
